Data reported in ChEMBL document CHEMBL5050826, “Compositions and methods for treating Friedreich's ataxia” (2019).
Calls of active or inactive are those of the source. The rule behind the calls is not given here.

Legend:
[1] = tested on: Flp-In-293; assay: Induction of frataxin accumulation in human Flp-In-293 cells stably expressing frataxin at 10 uM assessed as increase in frataxin levels measured after 72 hrs by Western blot analysis; format: functional, cell-based
[2] = tested on: Flp-In-293; assay: Induction of frataxin accumulation in human Flp-In-293 cells stably expressing frataxin K147R mutant at 10 uM assessed as increase in frataxin levels measured after 24 hrs by Western blot analysis; format: functional, cell-based
[3] = biological target: T1, Frataxin, mitochondrial (Homo sapiens) (UniProt Q16595); assay: Inhibition of recombinant frataxin (unknown origin) precursor degradation assessed as half-saturation binding constant (L1/2) and measured by fluorescence based assay
T1 sequence (whole entry): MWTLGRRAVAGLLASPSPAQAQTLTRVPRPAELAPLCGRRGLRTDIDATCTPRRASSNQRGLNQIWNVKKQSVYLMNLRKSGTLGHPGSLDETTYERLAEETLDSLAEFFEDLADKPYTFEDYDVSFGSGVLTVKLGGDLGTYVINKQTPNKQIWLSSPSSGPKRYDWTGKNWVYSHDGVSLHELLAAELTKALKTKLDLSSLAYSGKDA

[4] = tested on: Flp-In-293; assay: Induction of frataxin accumulation in human Flp-In-293 cells stably expressing frataxin at 10 uM assessed as increase in frataxin levels measured after 24 hrs by Western blot analysis; format: functional, cell-based
[5] = tested on: Lymphocyte; assay: Induction of frataxin accumulation in human FRDA-patient isolated lymphocyte at 10 uM assessed as increase in frataxin levels measured by Western blot analysis; format: functional, cell-based
[6] = tested on: Lymphocyte; assay: Rescue of aconitase activity in human FRDA-patient isolated lymphocyte at 10 uM […]; format: functional, cell-based
[7] = biological target: T1, Frataxin, mitochondrial (Homo sapiens); assay: Inhibition of frataxin ubiquitination in human HEK293 cells transiently co-transfected with HA-Ub and frataxin at 10 uM and measured after 48 hrs by Western blot analysis; format: cell-based
[8] = tested on: Lymphocyte; assay: Induction of frataxin accumulation in human FRDA-patient isolated lymphocyte at 1 uM assessed as increase in frataxin levels measured after 4 days by Western blot analysis; format: functional, cell-based; details: time 4.0 day

| Compound | Activity [1] | Activity [2] | K1/2 [3] [µM] | Activity [4] | Activity [5] | Activity [6] | inhibition [7] | Activity [8] |
| --- | --- | --- | --- | --- | --- | --- | --- | --- |
| C/C(=N\NC(=O)c1ccccc1)c1ccc2c(c1)Nc1ccccc1S2 | Active | inactive | 2.3 | Active | Active | Active |  |  |
| C/C(=N\NC(=O)c1ccc(C)cc1C)c1ccc2c(c1)Nc1ccccc1S2 | Active | inactive | 2.9 | Active | Active |  | Active |  |
| C/C(=N\NC(=O)c1cc2ccccc2cc1O)c1ccc2c(c1)Nc1ccccc1S2 |  | inactive |  | Active |  |  | Active |  |
| COc1ccccc1C(=O)N/N=C(\C)c1ccc2c(c1)Nc1ccccc1S2 |  |  |  |  |  |  |  | Active |
